Test results reported in article PMC11784013, “Potassium molybdate blocks APN-dependent coronavirus entry by degrading receptor via PIK3C3-mediated autophagy” (Journal of Virology, 2024).

Legend:
[1] = format: in vivo; settings: piglets, oral PM 100 mg/kg
Protocol: Neonatal pigs spontaneously delivered from sows were confirmed to be negative for TGEV by RT-qPCR and enzyme-linked immunosorbent assay. For the cytotoxicity and pharmacokinetic parameters of the PM, three piglets were orally administered PM (100 mg/kg), and the serum was collected by venipuncture at 0, 1, 2, 4, 6, 8, 10, 12, 16, and 24 h after oral administration of PM for cytotoxicity assays and pharmacokinetic parameter determination. For antiviral animal experiments, piglets were randomly separated into four groups: the mock group ([3]), TGEV group ([3]), TGEV-PM-therapy group ([3]), and TGEV-PM-prevention group ([3]). For the TGEV group, neonatal pigs were orally administered 1.245 × 10^8 PFU TGEV Miller for 24 h. In addition, piglets in the TGEV-PM therapy group were orally infected with 1.245 × 10^8 PFU TGEV Miller and then treated with PM (100 mg/kg). For the TGEV-PM-prevention group, three neonatal pigs were orally pretreated with PM (100 mg/kg) for 24 h and subsequently inoculated with 1.245 × 10^8 PFU TGEV Miller for 24 h. The body weights of all piglets were recorded, and anal swabs were collected every 12 h. At 24 hpi, all pigs were euthanized, and intestinal tissues were collected for RT-qPCR, western blot, IFA, and pathological examination. All animals were handled in strict accordance with good animal practice according to the Animal Ethics Procedures and Guidelines of the People’s Republic of China, and the study was approved by The Animal Administration and Ethics Committee of Lanzhou Veterinary Research Institute, Chinese Academy of Agricultural Sciences (Permit No. LVRIAEC-2020-030).
Fig. S9. Cytotoxicity assay and t1/2 detection of PM in piglets. (A) The serum of piglets orally administered PM were collected at 1, 2, 4, 6, 8, 10, 12, 16 and 24 hours respectively and AST, CK and CREA level in those sera were measured by biochemical parameters. (B) PM concentrations at indicated times in piglets were determined by ICP-MS. Results are presented as mean ± SD of data from three independent experiments ns, no significant.

APN = APN expression in ST cells and porcine intestinal organoids (western blot, IFA); format: cell-based; settings: PM 10 mM; for APN level, western blot, relative to WT without PM (=1) / APN level, western blot quantified by Image J, relative to no PM (=1): PRCV 0.1 MOI; for APN level, western blot quantified by Image J, relative to no PM (=1): ST cells
Protocol: Fig 5 PM blocks TGEV infection by degrading APN expression. (A, D, and G) ST cells (A) or intestinal organoids monolayer (D) or apical-out intestinal organoids (G) were treated with PM (10 mM) at 2, 4, 8, and 16 h, which was collected and determined by western blot. (B, E, and H) ST cells (B) or intestinal organoids monolayer (E) or apical-out intestinal organoids (H) were treated with PM (10 mM) at 16 h, which was measured by IFA, scale bar: 20 µm. (C, F, and I) ST cells (C) or intestinal organoids monolayer (F) or apical-out intestinal organoids (I) were treated with PM (10 mM) and infected with 0.1 MOI TGEV at 2, 4, 8, and 16 h. The cell samples were harvested and detected by western blot. (J) ST cells were transfected with empty vector or pCMV-HA-APN (pig) plasmids for 24 h, which was treated with H2O or PM and then infected with 0.1 MOI TGEV for 16 h. The cell samples were detected by western blot. All western blot results were calculated by Image J. All experiments were performed in triplicate.
Cotransfected cells were washed with cold PBS twice and lysed with NP40 lysis buffer (Beyotime, China, P0013F) supplemented with 1 mM PMSF (Beyotime, China, ST506) and phosphatase inhibitors (Beyotime, China, P1096). Lysis buffer containing cells was added to 20 µL of protein A+G agarose beads (Beyotime, China, P2055) and IgG (Santa Cruz, USA, 2025) on a rotating device for 4 h at 4°C to remove nonspecific proteins, after which the mixture was centrifuged at 2,500 rpm for 5 min. The supernatant was harvested, and anti-Flag/Myc/His/IgG antibodies were added to the samples on a rocking platform overnight at 4°C. Subsequently, 40 µL of protein A+G agarose beads were added to the supernatant containing the antibody, which was incubated for 4 h at 4°C on a rotating device. After washing with lysis buffer three times, the immunoprecipitates were collected by centrifugation, and the supernatant was discarded. Immunoprecipitated proteins were detected by western blotting. For the western blot, the proteins were separated by SDS‒PAGE and transferred onto a PVDF membrane (GE, USA, 10600023). The membranes were blocked in 5% nonfat milk at room temperature for 2 h and then incubated with specific primary antibodies overnight. Subsequently, the membrane was incubated with the secondary antibody for 1 h at room temperature. Finally, the proteins on the membranes were visualized with WesternBright ECL (Advansta, USA, K-12045-D50).
Fig. S5. PM blocks PRCV infection by degrading APN expression. (A) ST cells were treated with PM (10 mM) and infected with 0.1 MOI PRCV at 2 h, 4 h, 8 h and 16 h. The cell samples were harvested and determined by western blot. All western blot results were calculated by Image J. All experiments were performed in triplicate.
Fig. S8. PM inhibits PRCV infection by degrading APN via PIK3C3-mediated autophagy. (A-C) WT ST cells and PIK3C3 KO ST cells were treated with PM (10 mM) and infected with PRCV (0.1 MOI) for 16 h. Then the APN, PIK3C3, ATG14, BECN1, P62, PRCV N and LC3 were detected by western blot (A), and viral titers and PRCV N mRNA level were determined by TCID50 (B) and RT-qPCR (C) . (D-F) WT ST cells and PIK3C3 KO ST cells transfected with pCMV-Myc and pCMV-Myc-PIK3C3 respectively for 24 h were treated with PM (10 mM) and infected with PRCV (0.1 MOI) for 16 h. The APN, PIK3C3, P62, PRCV N and LC3 were determined by western blot (D). TCID50 (E) and RT-qPCR (F) were performed to detect viral titers and PRCV N m RNA level. All western blot results were calculated by Image J. Results are presented as mean ± SD of data from three independent experiments […]

[K+].[K+].[O]=[Mo](=[O])([O-])[O-] [PM, potassium molybdate]
t1/2 [1]: approximately 12 h | AUC(0-t) ([1]; serum, mean ± SD): 975.253 ± 33.380 mg·h/L | AUC(0-∞) ([1]; serum, mean ± SD): 1,341.054 ± 21.475 mg/L*h | CLz/F ([1]; serum, mean ± SD): 0.074 ± 0.001 L/h/kg | Cmax ([1]; serum, mean ± SD): 62.645 ± 0.677 mg/L | MRT(0-t) ([1]; serum, mean ± SD): 10.735 ± 0.155 h | MRT(0-∞) ([1]; serum, mean ± SD): 19.027 ± 1.388 h | Tmax ([1]; serum, mean ± SD): 7.333 ± 2.309 h | Vz/F ([1]; serum, mean ± SD): 1.267 ± 0.093 L/kg | t1/2z ([1]; serum, mean ± SD): 11.784 ± 0.954 h | APN level, western blot, relative to WT without PM (=1) (APN; Fig. S8A, PIK3C3 KO ST cells, 16 h): 0.88 | APN level, western blot, relative to WT without PM (=1) (APN; Fig. S8A, WT ST cells, 16 h): 0.15 | APN level, western blot, relative to WT without PM (=1) (APN; Fig. S8D, PIK3C3 KO ST cells with PIK3C3-Myc, 16 h): 0.14 | APN level, western blot, relative to WT without PM (=1) (APN; Fig. S8D, PIK3C3 KO ST cells without PIK3C3-Myc, 16 h): 0.87 | APN level, western blot, relative to WT without PM (=1) (APN; Fig. S8D, WT ST cells with pCMV-Myc, 16 h): 0.1 | APN expression in ST cells (APN; 2-16 h, western blot and IFA): decreased APN expression in ST cells | APN expression in intestinal organoid monolayers and apical-out organoids (APN; absence or presence of TGEV, different time points, western blot and IFA): decreased ex vivo APN expression | APN level, western blot quantified by Image J, relative to no PM (=1) (APN; 2 h): 0.53 | APN level, western blot quantified by Image J, relative to no PM (=1) (APN; 4 h): 0.31 | APN level, western blot quantified by Image J, relative to no PM (=1) (APN; 8 h): 0.19 | APN level, western blot quantified by Image J, relative to no PM (=1) (APN; 16 h): 0.01
